Assay results as given in publication PMC10287695, “Non-covalent inhibitors of thioredoxin glutathione reductase with schistosomicidal activity in vivo” (Nature Communications, 2023).
Values joined by “and” are separate entries in the source; they are usually repeats but may differ in a detail not shown here. Identical values can stand only once. Like-named read-outs stand apart in the source and are kept apart here. Marks after values point to notes of the source that are not given here.

Columns and labels:
S. mansoni TGR = biological target: T1, S. mansoni TGR (Schistosoma mansoni, UniProt Q962Y6); assay: S. mansoni TGR enzyme inhibition (DTNB reduction); type: biochemical; settings: for IC50: 15 min preincubation (enzyme + 100 µM NADPH + compound); for inhibition at 15 µM: compound 15 µM; for inhibition at 30 µM: compound 30 µM
T1 construct: made in house
T1 sequence (Q962Y6 1-598): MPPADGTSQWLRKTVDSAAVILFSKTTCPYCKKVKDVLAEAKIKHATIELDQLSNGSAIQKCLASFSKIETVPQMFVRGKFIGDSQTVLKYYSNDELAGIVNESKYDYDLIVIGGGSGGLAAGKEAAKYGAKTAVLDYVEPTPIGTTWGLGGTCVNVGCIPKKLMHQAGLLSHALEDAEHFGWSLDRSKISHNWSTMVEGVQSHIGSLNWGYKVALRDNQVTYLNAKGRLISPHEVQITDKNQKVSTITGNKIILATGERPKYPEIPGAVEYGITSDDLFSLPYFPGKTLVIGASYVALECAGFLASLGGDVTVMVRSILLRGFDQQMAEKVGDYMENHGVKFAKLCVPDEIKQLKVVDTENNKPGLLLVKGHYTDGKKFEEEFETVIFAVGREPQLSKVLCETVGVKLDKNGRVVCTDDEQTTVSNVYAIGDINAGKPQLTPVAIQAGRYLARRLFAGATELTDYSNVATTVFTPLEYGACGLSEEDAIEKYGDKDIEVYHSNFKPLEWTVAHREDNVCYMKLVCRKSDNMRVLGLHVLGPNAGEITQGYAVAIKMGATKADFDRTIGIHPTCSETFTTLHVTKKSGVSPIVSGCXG

Human TrxR1 = biological target: T2, Human TrxR1 (Homo sapiens, UniProt Q16881); assay: Human TrxR1 enzyme inhibition (DTNB reduction); type: biochemical; settings: for inhibition at 15 µM: compound 15 µM; for inhibition at 30 µM: compound 30 µM
T2 construct: made in house
T2 sequence (Q16881 1-499 isoform Q16881-5): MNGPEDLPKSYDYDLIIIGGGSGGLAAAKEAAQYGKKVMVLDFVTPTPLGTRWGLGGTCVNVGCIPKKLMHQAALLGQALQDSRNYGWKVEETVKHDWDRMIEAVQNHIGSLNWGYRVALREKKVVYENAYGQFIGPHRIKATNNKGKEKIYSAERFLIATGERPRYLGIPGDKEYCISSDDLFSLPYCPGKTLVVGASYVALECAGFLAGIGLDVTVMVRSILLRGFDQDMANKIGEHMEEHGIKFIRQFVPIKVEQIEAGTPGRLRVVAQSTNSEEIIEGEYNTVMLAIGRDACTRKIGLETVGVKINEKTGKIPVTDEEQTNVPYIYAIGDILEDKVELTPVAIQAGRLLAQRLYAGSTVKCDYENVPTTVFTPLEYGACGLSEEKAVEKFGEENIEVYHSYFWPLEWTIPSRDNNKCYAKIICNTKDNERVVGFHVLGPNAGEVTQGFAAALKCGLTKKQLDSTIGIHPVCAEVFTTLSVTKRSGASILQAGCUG

TGR = biological target: T3, TGR (Schistosoma mansoni, UniProt Q962Y6); assay: Thermal shift assay (TSA); type: binding; parameters: key to Avg. Tm / Tm, replicate 1-3: Tm in °C, from a 25–95 °C melt curve; settings: for Avg. Tm / Tm, replicate 1-3: TGR + 100 µM compound; for Avg. Tm, + 500 µM NADPH / Tm, replicate 1-3, + 500 µM NADPH: TGR + 100 µM compound + 500 µM NADPH; for Tm, replicate 1-3, + 500 µM NADPH / Tm, replicate 1-3: single replicates; for effect on Tm of oxidized TGR: without NADPH
T3 construct: made in house
T3 sequence (Q962Y6 1-598): T1 sequence (Q962Y6 1-598)
Method: Samples were prepared by using a final concentration of 0.25 mg/ml TGR diluted in TGR reaction buffer to the desired volume. To evaluate reduced TGR, 500 µM NADPH was added. […] After the preincubation period, 20 µL samples were pipetted into a BioRad un-skirted PCR 96 well plate and sealed with MicroAmp^TM Optical Adhesive film. The plate was then centrifuged for 5 min at 1000 × g. TSA was carried out using a BioRad CFX Connect qPCR instrument with a melt curve setting of 25 − 95 °C, in increments of 0.5 °C/10 seconds. The SYBR green channel was used to detect fluorescence as the wavelength of flavin fluorescence overlaps with that of SYBR green. BioRad CFX Maestro 5.2 was used to analyze TSA data.

S. mansoni adult worms = assay: Schistosomicidal activity ex vivo, adult worms (Cell Titer Glo), alone or with channel blockers; type: cell-based; settings: for LD50 ex vivo S. mansoni adult: 24 h exposure
Method: Three-week old, female Swiss-Webster mice obtained from the Charles River were housed in the Comparative Research Center of Rush University Medical Center. Mice were infected by percutaneous tail exposure to about 200 S. mansoni or 50 S. japonicum cercaria for adult worms and about 1000 cercaria for juvenile S. mansoni worms through natural transdermal penetration of the cercariae for 1 h[81].
DMSO formulated compounds were diluted with phenol red free M199 medium or RPMI medium for NTS or juvenile and adult worms, respectively, at <1% DMSO final concentrations. NTS, juvenile and adult worms from overnight cultures were tested against compounds in triplicate. Controls were treated with DMSO alone or 5 µM AF as a positive control in appropriate medium. […] Schistosome viabilities in the presence of the compounds were assessed using this formula: % Viability = Averages of Test / Averages of DMSO Control x 100.

Vero cells = assay: Cytotoxicity in mammalian cells (Cell Titer Glo); type: cell-based; settings: for LD50 ex vivo VERO: African green monkey, 24 h; for EC50: Chlorocebus sabaeus, Vero, estimate from raw data, read-out: EC50 viability of Vero cells
Method: Following overnight incubation, formulated DMSO-compound stock solutions were diluted with DMEM at <1% DMSO final concentrations. […] Vero cells treated similarly with different concentrations of PZQ, MZM and AF (Cayman Chemicals) were used as positive controls.

[1] = 6 h preincubation (enzyme + 100 µM NADPH + compound), read-out: S. mansoni TGR inhibition (%) at 66.7 µM
[2] = TGR, 15 minutes pre-incubation, read-out: % inhibition
[3] = TGR, 6 hours pre-incubation, read-out: % inhibition
[4] = 15 min preincubation (enzyme + 100 µM NADPH + compound), read-out: Human TrxR1 IC50
[5] = 6 h preincubation, read-out: Human TrxR1 IC50 (µM) or inhibition (%) at 66.7 µM: IC50
[6] = hsTrxR, 15 minutes pre-incubation
[7] = Schistosoma mansoni, S. mansoni adult worms, Conc. 5 µM, read-out: % viability
[8] = Schistosoma mansoni, S. mansoni adult worms, Conc. 10 µM, read-out: % viability
[9] = Schistosoma mansoni, S. mansoni adult worms, Conc. 25 µM, read-out: % viability
[10] = TGR, 15 minutes pre-incubation, compound 66.7 µM, read-out: % inhibition
[11] = Schistosoma mansoni, 10 µM, compound alone, read-out: % viability, adult worms
[12] = Schistosoma mansoni, 30 µM, compound alone, read-out: % viability, adult worms
[13] = Schistosoma mansoni, S. mansoni adult worms, Conc. 30 µM, read-out: % viability

| Structure (SMILES) | IC50 (S. mansoni TGR) [µM] | inhibition at 66.7 µM (S. mansoni TGR; [1]) [%] | inhibition at 15 µM (S. mansoni TGR; [2]) [%] | inhibition at 30 µM (S. mansoni TGR; [2]) [%] | IC50 (Human TrxR1; [4]) [µM] | IC50 (Human TrxR1; [5]) [µM] | inhibition at 15 µM (Human TrxR1; [6]) [%] | inhibition at 30 µM (Human TrxR1; [6]) [%] | Avg. Tm (TGR) | Avg. Tm, + 500 µM NADPH (TGR) | Tm, replicate 1-3, + 500 µM NADPH (TGR; in °C (unit assumed)) | Tm, replicate 1-3 (TGR) | effect on Tm of oxidized TGR (TGR) | LD50 ex vivo S. mansoni adult (S. mansoni adult worms; compound alone) | viability at 5 µM (S. mansoni adult worms; [7]) [%] | viability at 10 µM (S. mansoni adult worms; [8]) [%] | viability at 25 µM (S. mansoni adult worms; [9]) [%] | LD50 ex vivo VERO (Vero cells) | EC50 (Vero cells) [µM] | Tm, replicate 1-3 (TGR; in °C (unit assumed)) | also measured |
| --- | --- | --- | --- | --- | --- | --- | --- | --- | --- | --- | --- | --- | --- | --- | --- | --- | --- | --- | --- | --- | --- |
| Cc1oc(-c2ccc3c(c2)OCO3)nc1CN[C@@H]1C[C@@H]2C[C@H]([C@H]1C)C2(C)C [Compound 1] | > 66.7 | 42.1 | 5.86 | 10 | > 66.7 | 37 ± 3.44 | 6.99 | 11.4 | 73.67 | 73.5 | 73.5 | 73.5 (2×) and 74 | Neither fast 6-9 nor slow TGR inhibitors 1, 3, 5 affected the Tm | 12.3 ± 1.30 µM | 77.3 | 58.4 | 0.888 | >75.5^a µM | > 200 | – | inhibition at 15 µM (S. mansoni TGR; [3]): 7.78%; inhibition at 30 µM (S. mansoni TGR; [3]): 21.1%; viability at 35 µM (S. mansoni adult worms; Schistosoma mansoni, S. mansoni adult worms, Conc. 35 µM): 0.238% |
| Cc1oc(-c2ccccc2)nc1CN[C@@H]1C[C@@H]2C[C@H]([C@H]1C)C2(C)C [Compound 3] | > 66.7 | 45 | – | – | > 66.7 | 42.7 ± 3.95 | – | – | 73.5 | 73.67 | – | – | Neither fast 6-9 nor slow TGR inhibitors 1, 3, 5 affected the Tm | 12.1 ± 2.44 µM | – | – | – | 36.1 ± 3.0 µM | > 50 | 73.5 | Tm, replicate 1-3, + 500 µM NADPH (TGR): 74 and 73.5 (2×) |
| Cc1oc(-c2ccc3ccccc3c2)nc1CNC1CCCCCC1 [Compound 5] | – | 73 | – | – | > 66.7 | – | – | – | 73.5 | 73.5 | 73.5 | – | Neither fast 6-9 nor slow TGR inhibitors 1, 3, 5 affected the Tm | 9.36 ± 0.47 µM | – | – | – | >50^a µM | – | 73.5 | inhibition at 66.7 µM (Human TrxR1; 66.7 µM, 6 h preincubation, read-out: Human TrxR1 IC50 (µM) or inhibition (%) at 66.7 µM: inhibition): 28.5% |
| Cc1oc(C2CCCCC2)nc1C(=O)N[C@@H]1C[C@@H]2C[C@H]([C@H]1C)C2(C)C [Compound 7] | 14.6 ± 1.22 | – | 75.5 | 88.1 | 22.3 ± 2.03 | – | 38.1 | 63.3 | 73.6667 | 73.5 | 73.5 | 73.5 (2×) and 74 | – | 32.6 ± 0.26 µM | 99.8 | 72.9 | 63 | >50^a µM | – | – | inhibition at 66.7 µM (S. mansoni TGR; [10]): 95.1%; inhibition at 66.7 µM (Human TrxR1; hsTrxR, 15 minutes pre-incubation, compound 66.7 µM, read-out: % inhibition): 92.7%; viability at 5 µM (S. mansoni adult worms; Schistosoma mansoni, 5 µM, compound alone, read-out: % viability, adult worms): 99.8%; viability at 10 µM (S. mansoni adult worms; [11]): 72.9%; viability at 25 µM (S. mansoni adult worms; Schistosoma mansoni, 25 µM, compound alone, read-out: % viability, adult worms): 63%; viability at 30 µM (S. mansoni adult worms; [12]): 59%; viability at 30 µM (S. mansoni adult worms; [13]): 59% |
| C[C@@H]1[C@H]2C[C@@H](C[C@H]1NCc1nc3ccccc3n1C1CCCCCC1)C2(C)C [Compound 8] | 10.3 ± 2.01 | – | 57.4 | 62.9 | 4.9 ± 1.72 | – | – | – | 73.8333 | 70 | 69 and 70 and 71 | 73.5 and 74 (2×) | – | 22.3 ± 0.2 µM and 22.3 ± 0.20 µM | – | 85.4 | – | 32.7 ± 2.99 µM | > 50 | – | inhibition at 66.7 µM (S. mansoni TGR; [10]): 78.8%; inhibition at 2.5 µM (Human TrxR1; hsTrxR, 15 minutes pre-incubation, compound 2.5 µM): 37.2%; inhibition at 5 µM (Human TrxR1; hsTrxR, 15 minutes pre-incubation, compound 5 µM): 49.7%; inhibition at 10 µM (Human TrxR1; hsTrxR, 15 minutes pre-incubation, compound 10 µM): 61.6%; viability at 10 µM (S. mansoni adult worms; [11]): 85.4%; viability at 30 µM (S. mansoni adult worms; [12]): 30.6%; viability at 50 µM (S. mansoni adult worms; Schistosoma mansoni, 50 µM, compound alone, read-out: % viability, adult worms): 14%; viability at 100 µM (S. mansoni adult worms; Schistosoma mansoni, 100 µM, compound alone, read-out: % viability, adult worms): 6.59%; viability at 30 µM (S. mansoni adult worms; [13]): 30.6%; viability at 50 µM (S. mansoni adult worms; Schistosoma mansoni, S. mansoni adult worms, Conc. 50 µM, read-out: % viability): 14%; viability at 100 µM (S. mansoni adult worms; Schistosoma mansoni, S. mansoni adult worms, Conc. 100 µM, read-out: % viability): 6.59% |
